The values below come from ChEMBL document CHEMBL1141757, “Structural revision of aspernigrin A, reisolated from Cladosporium herbarum IFB-E002” (J Nat Prod, 2005).

Assay [1] has as its target Xanthine dehydrogenase/oxidase (Homo sapiens, UniProt P47989). Nature of the assay: Inhibition of xanthine oxidase.
Assay [2] can be described thus: Cytotoxicity against human SW1116 cells. To be noted: SW 1116. The format is functional, cell-based.

Xanthine dehydrogenase/oxidase, sequence (P47989 whole entry): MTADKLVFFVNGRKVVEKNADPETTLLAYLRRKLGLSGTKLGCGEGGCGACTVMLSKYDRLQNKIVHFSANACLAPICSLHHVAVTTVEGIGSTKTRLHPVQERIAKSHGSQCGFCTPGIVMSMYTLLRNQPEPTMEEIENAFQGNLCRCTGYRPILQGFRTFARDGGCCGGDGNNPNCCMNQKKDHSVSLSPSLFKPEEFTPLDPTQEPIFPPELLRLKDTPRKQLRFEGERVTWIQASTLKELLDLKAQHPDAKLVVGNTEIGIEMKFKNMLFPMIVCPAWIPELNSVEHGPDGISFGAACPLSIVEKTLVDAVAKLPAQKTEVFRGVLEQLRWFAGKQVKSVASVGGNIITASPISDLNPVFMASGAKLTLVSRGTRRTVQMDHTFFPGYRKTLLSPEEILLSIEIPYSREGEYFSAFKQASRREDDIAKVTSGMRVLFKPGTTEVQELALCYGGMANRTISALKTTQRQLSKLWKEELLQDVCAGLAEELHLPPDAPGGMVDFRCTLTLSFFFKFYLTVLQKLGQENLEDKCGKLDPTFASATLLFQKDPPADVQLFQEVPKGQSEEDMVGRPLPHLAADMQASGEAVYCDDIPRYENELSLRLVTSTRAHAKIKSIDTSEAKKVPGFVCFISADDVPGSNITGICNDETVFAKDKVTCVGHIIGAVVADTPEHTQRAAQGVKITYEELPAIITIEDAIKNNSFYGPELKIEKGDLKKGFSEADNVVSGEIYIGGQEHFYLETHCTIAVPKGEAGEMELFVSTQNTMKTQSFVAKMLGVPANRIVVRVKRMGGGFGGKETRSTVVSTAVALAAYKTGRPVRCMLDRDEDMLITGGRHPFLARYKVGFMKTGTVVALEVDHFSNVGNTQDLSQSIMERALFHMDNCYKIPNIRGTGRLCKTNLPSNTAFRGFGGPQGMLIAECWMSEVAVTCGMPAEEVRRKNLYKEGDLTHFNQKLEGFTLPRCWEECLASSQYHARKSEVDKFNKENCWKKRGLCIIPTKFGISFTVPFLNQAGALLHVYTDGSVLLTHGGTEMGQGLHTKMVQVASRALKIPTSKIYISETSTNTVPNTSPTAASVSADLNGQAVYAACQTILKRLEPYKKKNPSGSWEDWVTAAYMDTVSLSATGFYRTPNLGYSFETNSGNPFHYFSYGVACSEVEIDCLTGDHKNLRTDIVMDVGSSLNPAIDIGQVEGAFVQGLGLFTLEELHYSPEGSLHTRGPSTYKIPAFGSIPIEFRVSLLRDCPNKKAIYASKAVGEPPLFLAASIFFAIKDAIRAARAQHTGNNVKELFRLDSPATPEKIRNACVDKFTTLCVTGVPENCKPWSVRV

Compound `COc1cc(OC)c2c(O)c3c(=O)cc(C)oc3c(-c3c(OC)cc4cc(O)c5c(=O)cc(C)oc5c4c3OC)c2c1` [FONSECINONE A] returned an IC50 in assay [1] of 19.5 µM.
Regarding `COc1cc(OC)c2c(O)c3c(=O)cc(C)oc3cc2c1` [RUBROFUSARIN B], the IC50 in assay [1] was determined as 16.8 µM; in assay [2] it was 15.7 µM.
